Where two headings read alike, the source gives them in different places.
Key:
SH-SY5Y cells [1] = assay: Protection against OGD/R damage in SH-SY5Y cells (CCK-8); format: cell-based, human; conditions: for EC50: Homo sapiens
Description: To mimic ischemic conditions in vitro, cells were washed with PBS and then cultured for 2.5 h at 37 °C in glucose-free medium under anaerobic conditions (5% hydrogen, 90% nitrogen, and 5% carbon dioxide). OGD process was terminated by transferring cells back to normal glucose-containing medium under normoxic conditions (5% CO₂, 37 °C) and maintained for 24 h.
In the administration group, cells were exposed for 12 h with Cpd.51 prior to OGD. OGD lasted for 2.5 h and the reperfusion lasted for 24 h before the experiment was concluded. Subsequently, cell viability was determined using the cell counting kit-8 (CCK-8, C0039, Beyotime, China). In the experiment to explore the treatment time window, the only difference was the timing of the Cpd.51 treatment, while all other procedures remained unchanged.
Hek-293T cells were transiently transfected, using Lipofectamine™ 3000 and P3000™ reagent (L3000075, Invitrogen, USA) according to the manufacturer's instructions, with the wild-type, point-mutant and double-mutations constructs of Keap1, DHRS3 or Nrf2 (each at 0.5 ng/μL), respectively. Similarly, to promote the expression of the DHRS3 gene, a DHRS3 expression plasmids (0.5 ng/μL) was transfected as well as the corresponding negative controls into SH-SY5Y cells for 6 h, and further cultured with fresh medium for 18 h according to the manufacturer's instructions.

[2] = Metabolite identification in human liver microsomes; format: in vitro ADME
Description: In vitro identification of metabolites was performed by incubating Cpd.51 (parent compound, final concentration 10 µM) with human liver microsomes (final protein concentration, 1 mg/mL) at 37 °C in a 100 mM potassium phosphate buffer containing 5 mM MgCl2. Samples were quenched with methanol and analyzed using a Waters G2-XS Q-Tof UPLC-MS system employing positive-ion and negative-ion electrospray ionization. The LC-MS extract ion chromatograms to identify the major putative metabolites. MS/MS spectra of Cpd.51 and its metabolites were acquired during both positive-ion and negative-ion electrospray. The potential chemical structures of the metabolites were inferred from their MS/MS spectra and retention times. Metabolic pathways of Cpd.51 in human liver microsomes were subsequently proposed. […]
The objective of this study is to identify major metabolites of Cpd.51 generated in human […]
In vitro metabolites identification was conducted after incubating Cpd.51 (parent compound, final concentration 10 µM) with human liver microsomes (final protein concentration, 1 mg/mL) at 37 °C in 100 mM potassium phosphate buffer containing 5 mM MgCl2 in the presence of NADPH or without NADPH. The samples taken at 0 minute (min) and 5 min were quenched by methanol and analyzed using Waters G2-XS Q-Tof UPLC-MS system with positive-ion and negative-ion electrospray ionization. […]

SH-SY5Y cells [3] = assay: Cytotoxicity in SH-SY5Y cells, 24 h incubation; format: cell-based; conditions: Homo sapiens

CC1(C)CCC2(C(=O)NO)CCC3(C)C(C(=O)C=C4C5(C)C=C(C#N)C(=O)C(C)(C)C5CCC43C)C2C1 (stereo not shown) [Cpd.51]
OGD/R damage when administered at different time points (SH-SY5Y cells [1]; 100 nM, CCK-8): consistently alleviated OGD/R damage | EC50 (SH-SY5Y cells [1]; SH-SY5Y, DHRS3-OE (DHRS3 overexpression plasmid), read-out: EC50 of cytoprotection against OGD/R): 183 nM | EC50 (SH-SY5Y cells [1]; SH-SY5Y, NC-OE, read-out: EC50 of cytoprotection against OGD/R): 53 nM | EC50 (SH-SY5Y cells [1]; read-out: EC50 against OGD/R damage): 19.7 nM | number of major metabolites ([2]; human liver microsomes): 10 | Relative UV abundance (5 min), relative to parent in T0 sample ([2]; human liver microsomes with NADPH, 10 µM Cpd.51, 5 min, UV 250-260 nm): 54.06% | IC50 (SH-SY5Y cells [3]): 1980 nM
